Measurements: US6294568A, “5-arylpyrrole derivatives” (priority 1997, dated 2001)

Key:
[1] = test system: adjuvant arthritis; assay: Rat Adjuvant Arthritis Test; format: in vivo, SD rats; details: 3 mg/kg, oral
Protocol: SD rats were injected subcutaneously with […] liquid paraffin/rat of H-37RA strain in the plantar area of the right hind paw. Only liquid paraffin (0.05 ml) was administered to control groups in the same manner. 21 days after the administration, rats showing the evidence of arthritis were selected and divided into groups having equal mean left and right hind paw volumes, and also having equal arthritis scores. From the date of the grouping, the test samples were administered orally to the rats once daily for 7 days (only the solvent was administered to the negative and positive control groups). The degree of the arthritis was quantitatively evaluated by measuring the volumes of the left and right hind paws by using a volume meter (manufactured by Muromachi Kikai) and by scoring the degree of arthritis by macroscopic observation as illustrated in Table 2. According to the scoring criteria in Table 2, 15 is a perfect score.
The dosage of each of the test samples was 3 mg/kg.

[2] = target: T1, Human COX-2 (Homo sapiens, UniProt P35354); assay: Human COX-2 Inhibitory Activity Test (LPS-induced PGE2 in blood); format: cell-based
T1 construct: endogenous in cells; host or cells: heparinised whole blood of a healthy human donor pretreated with aspirin, stimulated with LPS (own knowledge: COX-2 is induced in monocytes)
T1 sequence (P35354 18-604): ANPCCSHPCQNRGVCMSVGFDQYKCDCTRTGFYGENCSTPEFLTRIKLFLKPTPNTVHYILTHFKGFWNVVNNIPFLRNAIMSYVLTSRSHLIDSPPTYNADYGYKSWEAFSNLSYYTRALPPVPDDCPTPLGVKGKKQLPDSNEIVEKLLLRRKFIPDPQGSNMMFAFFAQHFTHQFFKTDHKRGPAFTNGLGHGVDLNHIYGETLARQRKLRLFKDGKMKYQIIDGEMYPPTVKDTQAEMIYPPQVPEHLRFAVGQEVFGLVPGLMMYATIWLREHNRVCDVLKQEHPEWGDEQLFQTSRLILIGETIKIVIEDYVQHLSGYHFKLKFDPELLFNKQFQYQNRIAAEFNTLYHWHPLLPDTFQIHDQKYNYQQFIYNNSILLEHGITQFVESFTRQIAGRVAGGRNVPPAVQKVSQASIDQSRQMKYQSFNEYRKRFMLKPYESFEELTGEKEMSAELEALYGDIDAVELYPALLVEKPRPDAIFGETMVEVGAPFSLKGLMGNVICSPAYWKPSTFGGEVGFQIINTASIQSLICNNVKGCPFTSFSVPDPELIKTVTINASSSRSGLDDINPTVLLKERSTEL

[3] = test system: Sarcoma 180 solid tumor; assay: Antitumor Effect with respect to Sarcoma 180 Solid Tumor Mouse; format: in vivo, ICR mice; details: 10 mg/kg in abdominal cavity, 10 days; day 11
Protocol: The antitumor effect test was conducted according to the method of the U. S. National Cancer Institute (NCI) (Cancer Chemotherapy Reports part 3, Vol. 3, 1 (1978)). Cell suspension of Sarcoma 180 cells (mouse sarcoma virus) which was employed as the tumor cell strain for transplant was prepared by diluting the cells in the Hank's solution at 2×10^7 cells/ml concentration ([…]), and ICR mice (10 mice per group) aged 5 weeks were injected subcutaneously with 0.2 ml of the cell suspension at the region of the back. Setting the day of the tumor transplantation as day 0. the mice were administered in the abdominal cavity with the compounds of the invention (Preparation Examples 1 and 37), 5-fluorouracyl, and the solution as the control for 10 days consecutively from day 1. On day 11, the mice were sacrificed, and portions of the solid tumor were removed so that weights thereof were measured. The dosage of each of the test samples was 10 mg/kg.

[4] = Acute Toxicity Test; format: in vivo, SD rats
Protocol: SD rats (3 rats per group) fasted overnight was employed in the present test. The title compound (Preparation Example 1) suspended in 1% methyl cellulose was administered to the rats. The test was conducted on the dosages of […]. […] It was indicted from the test result that the title compounds ensure the enhanced safety.

[5] = Subcute Toxicity Test; format: in vivo, SD rats; details: 100 mg/kg once daily for 14 days, male and female rats
Protocol: The Subcute toxicity test was conducted as described in the following. SD rats (six each of male and female rats per group) were employed in the present test. The title compound (Preparation Example 1) was suspended in 0.5% methyl cellulose solution to be administered to the rats by a disposable feeding tube (manufactured by Fuchigami Kikai) once daily for 14 days. The dosage of the test samples was 100 mg/kg.

## Cc1cc(-c2ccc(F)cc2)c(-c2ccc(S(C)(=O)=O)cc2)[nH]1 [Preparation Example 1, 4-(4-fluorophenyl)-2-methyl-5-(4-methylsulfonylphenyl)-1H-pyrrole]
[1]; day 21 (starting date of administration), once daily
  Right Hind Paw Volume day 21: 3.86 mL
[1]; day 27, once daily for 7 days
  Right Hind Paw Volume day 27: 2.96 mL
[2]; human blood, LPS, PGE2, IC50 from Hill Plot
  IC50: 950 nM
[2]; ratio of IC50 COX-1 to COX-2
  COX-1/COX-2: 683
[3]
  Tumor Weight: 0.726 g
[4]; 500/kg, 1000/kg, 2000/kg, observed for a week
  death: no death was noted in the test
[4]; rat, in vivo
  general symptoms after administration: an analgesic action was noted after the administration, and the rats recovered to the normal state in one hour
  weight and general symptoms after one week: the weight increased favorably and no abnormality was noted in the general symptoms
[5]
  general symptoms and weight increase: neither of a change in the general symptoms nor an adverse affect on the weight increase was noted
